Source: US6255347A (priority 1997, dated 2001)
“Also recorded” adds a separate entry of the source.

Legend:
UACC 375 = settings: cited from earlier work
neutrophil = settings: by chemotactic agents; cited from earlier work
[1] = tested on: APPs secretion by NIH 3T3 cell lines; settings: 50 μM
[2] = Estimated unbound fraction of ibuprofen in culture media; type: in vitro ADME
NIH 3T3 cells = assay: Foci formation assay, inhibition of PMA induced neoplastic transformation of NIH 3T3 cells; type: cell-based; settings: for inhibition of PMA induced foci formation / neoplastic transformation: PMA 0.02 μg/ml, 2% FBS, 6 weeks, ibuprofen 10 or 100 μg/ml
Protocol: (§1) NIH 3T3 cells (American Type Culture Collection, Rockville, Md.) were cultured in DMEM supplemented with 10% FBS inoculated at 10^4 cells/35 […] dish. […] PMA and ibuprofen were dissolved in DMSO and stored in 5% DMSO stock solutions that were diluted a 1000-fold with culture media prior to use. […] The media containing freshly added PMA and ibuprofen were changed every 60 hours for both the foci formation assay and PKCα analysis by Western blot.
Subsequent to washing with a tris/ saline buffer, the cells were stained with a solution of 4% aqueous Giemsa stain in phosphate buffer (pH 7.0). Foci of transformed cells were then visible by eye due to their high local density and verified by under light microscopy.

Ht-29 = settings: cited from earlier work
MCF 7/s = settings: cited from earlier work
[3] = tested on: mouse mammary glands cancer; settings: carcinogen induced; cited from earlier work
rat colon cancer = settings: carcinogen induced; cited from earlier work
lung and gastric cancer = settings: carcinogen induced; cited from earlier work
A-427 = settings: cited from earlier work
APPs [4] = settings: 10 mg/kg P.O. bid, 7 days
Protocol: (§2) The cells were washed twice with phosphate-buffered saline (PBS) at 37° C. and subsequently lysed and scraped in 1 ml ice-cold protein lysis buffer (20 mM Tris-HCl, pH7.4, 2 mM EGTA, 2 mM EDTA, […] leupeptin and […] aprotinin) at 4° C. […] Briefly, cells were homogenized 10× in 15 ml glass homogenizer with a tight-fitting pestle and centrifuged at 900×g for 10 min. The resulting supernatant was then centrifuged at 100,000×g for 60 min to produce a nucleus-free membrane fraction (pellet) and a cytosol fraction (supernatant) for Western blots. The 900×g nuclear pellet was suspended in the 2 ml lysis buffer containing 10% sucrose and 0.1% Triton X-100 and washed twice by centrifuging at 1000×g for 10 min, then resuspended in 1 ml of the same buffer without Triton X-100 for Western blots. The purity of the fractions was monitored by light microscopy. […] The samples were stored at -70° C. until analysis.
(§3) 15 μl of human plasma, 15 μl of rat plasma, CSF or 50 μg of rat brain protein were denatured with 35 μl of sample buffer at 95° C. for 4 min. Denatured proteins were separated by 10% SDS-polyacrylamide gel electrophoresis with a 50 μg or 20 μg protein load for each sample for APPs or PKC, respectively, and electrophoretically transferred from gel to nitrocellulose membrane. […] The immunoreactive bands were developed using enhanced chemilumenescence (ECL. Amersham Life Sci., Little Chalfont, UK), following extensive washing with the blocking buffer. The PKC bands were verified in each case by competitively blocking the signal with the peptide corresponding to each of PKCs. The bands were quantitated by scanning densitometry. Quantitative comparisons were made between samples processed simultaneously on one blot.
(§4) Male Sprague-Dawley rats (12 month) were obtained from Harlan-Sprague-Dawley, Inc. (Indianapolis, Ind.) and housed under controlled conditions of temperature humidity and light/dark cycle. […] Rat stomach and duodenum were collected for the quantitation of gastroduodenal lesions. […]

APP = settings: 10 mg/kg P.O. bid, 7 days
Protocol: as §2, §3, §4

[5] = cited from earlier work
AD progression = settings: 6-month, double-blind, placebo-controlled; cited from earlier work
PKC = target: T1, PKC (Rattus norvegicus, UniProt P05696); assay: Protein kinase C activity assay (histone phosphorylation, partially purified rat brain PKC); type: biochemical; settings: PMA stimulated, 2 min, 30° C.
T1 construct: Partially purified PKCα from rat brain; purchased Promega (Madison, Wis.); host or cells: rat brain (tissue enzyme, partially purified)
Protocol: The following were obtained from the Sigma Chemical Co. (St. […] Anti-PKCα antibody (affinity purified) and its C-terminal region peptide was obtained from Life Technologies (Gaithersburg, Md.). […] All other chemicals were of the highest available purity and were obtained from standard commercial sources. […] Following 2 min initial incubation at 30° C., kinase reactions were initiated by the addition of ^32 P-γ-ATP and enzyme and continued at 30° C. for 2 min. Control incubations contained all assay components except enzyme and ibuprofen. […] All samples were carried out in duplicate.

rat stomach and duodenum = assay: Gastric ulcer index / gastroduodenal lesions in rat; type: in vivo; settings: rat, in vivo
Protocol: (§5) Male Sprague-Dawley rats (12 month) were obtained from Harlan-Sprague-Dawley, Inc. (Indianapolis, Ind.) and housed under controlled conditions of temperature humidity and light/dark cycle. […] Rat blood, brain and 50 μl of cerebrospinal fluid were collected and stored at -70° C. for APPs and PKC analysis by Western blotting. Rat stomach and duodenum were collected for the quantitation of gastroduodenal lesions.
The rat stomach and first 12 cm of the duodenum were opened and carefully shed with saline to remove any residual debris and fixed in 10% buffered formaldehyde. Tissues were examined macroscopically (×10) for lesions and hemorrhages. The evaluation of lesions or hemorrhages was based on the ulcer index (UI) reported by Leyck et al. (1985) and expressed as the sum total of lesions per treatment. The scoring units used ranged from 0 to 5, where zero represents no macroscopically visible lesions; 1 represents one to three small ulcers less than 4 mm; 2 represents more than three small ulcers; 3 represents ulcer hemorrhages with several small ulcers; 4 represents large (>4 mm) ulcers; 5 indicates tissue perforation.

PKCα = PKCα translocation in NIH 3T3 cells (subcellular fractionation, Western blot); type: cell-based; settings: 10 μg/ml
Protocol: as §1, §2, §3

PKC θ = settings: cytosolic or membranous fractions
Protocol: as §2, §3, §5
(§6) Following separation of cytosolic or membrane proteins of rat brain protein by SDS-polyacrylamide gel electrophoresis, the proteins were transfer to nitrocellular membranes. The membranes were then probed for presence of PKCs using polyclonal antibodies against PKC α, βII, θ, ε, .xi., or γ.

PKC .xi. = settings: cytosolic or membranous fractions
Protocol: as §2, §3, §5, §6

PKC γ = settings: cytosolic or membranous fractions
Protocol: as §2, §3, §5, §6

PKC βII = tested on: PKC βII
Protocol: as §2, §3, §5, §6

PKC ε = settings: cytosolic or membranous fractions
Protocol: as §2, §3, §5, §6

PKC α = tested on: PKC α
Protocol: as §2, §3, §5, §6

APPs (105 kDa) = APPs (105 kDa) in human blood; type: in vivo
Protocol: as §3
Food intake was restricted until 4 h post dose. […] Over the next 6 days, ibuprofen was administered as 800 mg t.i.d. and subjects were instructed to return on day 3 and 5 for a single blood draw. […] Serum samples were stoiced -20° C. prior to analysis.

APPs [6] = settings: 10 mg/kg P.O. bid, 7 days; remark: listed apart in the source
Protocol: as §3, §5
The cytosolic and membrane fractions were obtained by differential centrifugation of rat brain tissue treated by ibuprofen. […]

[7] = membrane fraction, 10 mg/kg bid 7 days, n = 4 mean ± S.D.

## CC(C)Cc1ccc(C(C)C(=O)O)cc1 (stereo not drawn) [ibuprofen, α-4-(2-methylpropyl) benzeneacetic acid]
UACC 375
  inhibition of proliferation: inhibits the proliferation
neutrophil
  blocking of neutrophil activation: blocks neutrophil activation by chemotactic agents but this effect is not enantioselective
[1]; 20 h
  APPs secretion (in words): increased APPs secretion
[2]
  fraction unbound: ~0.05
NIH 3T3 cells; DMSO vehicle, no PMA
  effect on NIH 3T3 cell growth patterns without PMA: no effect
Ht-29
  inhibition of proliferation: inhibits the proliferation
MCF 7/s
  inhibition of proliferation: inhibits the proliferation
[3]
  anticancer activity: demonstrated anticancer activity
Rat colon cancer
  anticancer activity: demonstrated anticancer activity
Lung and gastric cancer
  anticancer activity: demonstrated anticancer activity
A-427
  inhibition of proliferation: inhibits the proliferation
APPs [4]
  content of cytosolic APPs of rat brain (in words): increased the content of cytosolic APPs
APP
  content of membrane APP of rat brain (in words): decreased content of membrane APP of rat brain, but not significantly
[5]
  protein binding (in words): highly protein bound
[5]; suspensions, drops, caplets, chewable tablets
  oral absorption: well absorbed orally

## COc1ccc2c(c1)c(CC(=O)O)c(C)n2C(=O)c1ccc(Cl)cc1 [indomethacin]
AD progression
  slowing AD progression: very effective in slowing AD progression

## CC(C)Cc1ccc(C(C)C(=O)O)cc1 (racemic) [RS-ibuprofen]
PKC
  concentration inhibiting PKC mediated histone phosphorylation: 2 µM
[1]; 20 h culture, n = 2, mean ± S.D.
  Density of APPs band: 6.073 ± 0.55
NIH 3T3 cells; listed as Racemic ibuprofen
  inhibition of PMA induced foci formation / neoplastic transformation: dramatically decreased
NIH 3T3 cells; listed as racemic ibuprofen
  inhibition of PMA induced foci formation / neoplastic transformation: inhibit the neoplastic transformation; also recorded: substantially inhibited
Rat stomach and duodenum
  gastropathy (in words): induced serious gastric ulcers and hemorrhage
PKCα; 2 weeks of PMA
  PKCα detectable in the membrane fraction: detectable in the membrane fraction
PKCα; PMA 4 hours
  inhibition of PKCα translocation from cytosol to nuclear compartments: completely blocked
PKCα; particularly 2 weeks of PMA
  inhibition of PKCα translocation, racemate versus enantiomers: less potent than either of the enantiomers
PKC θ
  effect on PKC θ content: did not show a dramatic effect
PKC .xi.
  effect on PKC .xi. content: did not show a dramatic effect
PKC γ
  effect on PKC γ content: did not show a dramatic effect
PKC βII; 7 days of treatment
  rat brain PKC βII content (in words): not significantly
PKC βII; [7]
  Density of PKC βII Bands: 8.46 ± 3.68
PKC ε
  effect on PKC ε content: did not show a dramatic effect
PKC α; 7 days of treatment
  rat brain PKC α content (in words): not significantly
PKC α; [7]
  Density of PKC α Bands: 13.61 ± 5.15
APPs (105 kDa); 1st dose (800 mg), 0 hour (before dose), n = 4, mean ± S.D.
  human blood APPs (105 kDa): 1.95
APPs (105 kDa); after 7 days dosing, 800 mg t.i.d. oral
  duration of increased APPs (105 kDa) secretion: 14 days
APPs (105 kDa); post 1st dose (800 mg), 1 hour, n = 4, mean ± S.D.
  human blood APPs (105 kDa): 3.64
APPs (105 kDa); post 1st dose (800 mg), 3 hours, n = 4, mean ± S.D.
  human blood APPs (105 kDa): 3.22
APPs (105 kDa); post 7 days dose (800 mg, tid), 1 hour, n = 4, mean ± S.D.
  human blood APPs (105 kDa): 4.57
APPs (105 kDa); post 7 days dose (800 mg, tid), 1 day, n = 4, mean ± S.D.
  human blood APPs (105 kDa): 6.15
APPs (105 kDa); post 7 days dose (800 mg, tid), 2 days, ND = Not detectable
  human blood APPs (105 kDa): 4.77
APPs (105 kDa); post 7 days dose (800 mg, tid), 3 days, ND = Not detectable
  human blood APPs (105 kDa): 4.33
APPs (105 kDa); post 7 days dose (800 mg, tid), 4 days, ND = Not detectable
  human blood APPs (105 kDa): 3.37
APPs (105 kDa); post 7 days dose (800 mg, tid), 14 days, ND = Not detectable
  human blood APPs (105 kDa): 3.77
APPs (105 kDa); single oral 800 mg dose
  duration of increased APPs (105 kDa) secretion: 1 days
APPs [4]; n = 4 mean ± S.D.
  Density of APP Bands, Cytosol: 9.32 ± 5.35
APPs [6]
  APPs secretion in rat CSF (in words): dramatically increased APPs secretion
APPs [6]; n = 4 mean ± S.D.
  Density of APP Bands, CSF: 13.63 ± 6.56
